Experiments:
[1] = tested on: hair follicles in human full thickness scalp skin punches; test: Microscopic hair cycle staging and hair cycle score in ex vivo cultured scalp skin; format: cell-based; details: for hair cycle score ± SEM: 100 = anagen, 200 = early catagen, 300 = mid catagen, 400 = late catagen, lower number = more hairs in anagen; for % of hair follicles in anagen phase / % of hair follicles in early catagen phase: two topical treatments (day 1 and 3), evaluated after 5 days of ex vivo culture
Protocol: Human full thickness scalp skin punches (6 mm diameter) with hair from the occipital region were obtained from a donor. The dissected human punches were cultured at 37° C. with 5% CO2 in a minimal media of William's E media (Gibco, Life Technologies) supplemented with 10 ng/ml hydrocortisone (Sigma Aldrich), 10 μg/ml insulin (Sigma Aldrich) and 1% penicllin/streptomycin (Gibco) to make William's Complete Media (WCM) modified as previously described (Edelkamp et al., Molecular Dermatology 2020, Langan et al., Exp Dermatol 2015). After 24 h resting culture (day 0), two topical treatments were Performed (day 1 and 3). The medium was changed at day 3. Punches were embedded in OCT Compound (Optimal Cutting Temperature Compound) after 5 days (day 5) of ex vivo culture and cryosectioned (7 μm sections). The experimental groups for the topical treatments are outlined in Table 3.
Hair cycle staging and hair cycle score are perfomed at the end of the culture and can be determined according to several established macroscopic and microscopic paremeters (Langan et al., Exp Dermatol 2015; Oh et al., JID 2016).
Hair follicles are microscopically evaluated for the hair cycle staging using Masson-Fontana histochemistry and Ki-67/TUNEL immunostaining as previously described (Kloepper at al., Exp Dermatol 2010; Langan et al., Exp Dermatol 2015). For each experimental group, the percentage of hair follicles in each hair cycle phase was calculated and is shown below.

[2] = biological target: T1, olfactory receptor OR2AT4 (Homo sapiens, UniProt A6NND4); details: OR2AT4 expressed in the epithelium of human hair follicles; cited from earlier work
T1 sequence (A6NND4 1-320): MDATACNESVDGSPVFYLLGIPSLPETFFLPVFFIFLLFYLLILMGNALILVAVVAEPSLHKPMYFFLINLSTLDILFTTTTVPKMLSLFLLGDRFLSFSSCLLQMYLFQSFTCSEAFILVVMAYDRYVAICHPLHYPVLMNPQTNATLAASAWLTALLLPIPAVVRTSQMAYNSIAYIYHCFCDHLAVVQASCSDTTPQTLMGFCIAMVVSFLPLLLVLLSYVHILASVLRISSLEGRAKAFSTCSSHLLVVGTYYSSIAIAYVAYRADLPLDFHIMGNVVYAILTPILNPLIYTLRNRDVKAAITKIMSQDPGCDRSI

human hair follicles = details: by decreasing apoptosis and increasing the production of growth factor IGF-1; cited from earlier work

Structure (SMILES)	hair cycle score ± SEM [1] [arbitrary units]	% of hair follicles in anagen phase [1] [%]	% of hair follicles in early catagen phase [1] [%]	effect on the olfactory receptor OR2AT4 [2]	effect on hair growth ex vivo (human hair follicles)	effect on anagen (in words) ([1]; topical application on ex vivo cultured scalp skin)
Nc1cc(N2CCCCC2)nc(N)[n+]1[O-] [#5 Minox), Minoxidil]	123.1 ± 12.16	77	23	–	–	–
CC1=CCC(CCC(C)C(C)O)C1(C)C (stereo not drawn) [#2 (Sand), 3-methyl-5-(2,2,3-trimethylcyclopent-3-en-1-yl)pentan-2-ol]	137.5 ± 12.5	63	38	stimulatory effect	prolongs hair growth ex vivo	prolongs anagen
